Target: human recombinant PDE5 (Homo sapiens, UniProt O76074)
Assay: Inhibitory effect on cGMP-PDE (one-step assay, 8-[H3]-cGMP), human recombinant PDE5
Type: biochemical
Conditions: not given
Experimental: The compounds of the present invention were tested for an ability to inhibit PDE5. The ability of a compound to inhibit PDE5 activity is related to the IC50 yalue for the compound, i.e., the concentration of inhibitor required for 50% inhibition of enzyme activity. The IC50 value for compounds of the present invention were determined using recombinant human PDE5. […]
Cell pellets (29 g) were thawed on ice with an equal volume of Lysis Buffer (25 mM Tris HCl, pH 8, 5 mM MgCl2, 0.25 mM DTT, 1 mM benzamidine, and 10 μM ZnSO4). Cells were lysed in a Microfluidizer® (Microfluidics Corp.) using nitrogen at 20,000 psi. The lysate was centrifuged and filtered through 0.45 μm disposable filters. The filtrate was applied to a 150 mL column of Q SEPHAROSE® Fast-Flow (Pharmacia). The column was washed with 1.5 volumes of Buffer A (20 mM Bis-Tris Propane, pH 6.8, 1 mM MgCl2, 0.25 mM DTT, 10 μM ZnSO4) and eluted with a step gradient of 125 mM NaCl in Buffer A followed by a linear gradient of 125–1000 mM NaCl in Buffer A. Active fractions from the linear gradient were applied to a 180 mL hydroxyapatite column in Buffer B (20 mM Bis-Tris Propane (pH 6.8), 1 mM MgCl2, 0.25 mM DTT, 10 μM ZnSO4, and 250 mM KCl). After loading, the column was washed with 2 volumes of Buffer B and eluted with a linear gradient of 0–125 mM potassium phosphate in Buffer B. Active fractions were pooled, precipitated with 60% ammonium sulfate, and resuspended in Buffer C (20 mM Bis-Tris Propane, pH 6.8, 125 mM NaCl, 0.5 mM DTT, and 10 μM ZnSO4). The pool was applied to a 140 mL column of SEPHA-CRYL® S-300 HR and eluted with Buffer C. Active fractions were diluted to 50% glycerol and stored at −20° C.
(§1) CGMP-PDE activity of compounds of the present invention was measured using a one-step assay adapted from Wells et al., Biochim. Biophys. Acta, 384, 430 (1975). The reaction medium contained 50 mM Tris-HCl, pH 7.5, 5 mM magnesium acetate, 250 μg/ml 5′-Nucleotidase, 1 mM EGTA, and 0.15 μM 8-[H^3]-cGMP. Unless otherwise indicated, the enzyme used was a human recombinant PDE5 (ICOS Corp., Bothell, Wash.).
(§2) Compounds of the invention were dissolved in DMSO finally present at 2% in the assay.

SMILES	IC50 [nM]
CC1=CCC(/C=C/C(=O)N2CCc3c([nH]c4ccccc34)C2c2ccc3c(c2)OCO3)CC1 (stereo not drawn) [Example 20]	180
Cc1cccc2c3c([nH]c12)C(c1ccc2c(c1)OCO2)N(C(=O)/C=C/c1ccc(C(=O)O)cc1)CC3 (stereo not drawn) [Example 21]	3
O=C(/C=C/c1ccccc1)N1CCc2c([nH]c3cc(Br)ccc23)C1c1ccc2c(c1)OCO2 (stereo not drawn) [Example 22]	26
O=C(/C=C/c1ccccc1)N1CCc2c([nH]c3cc(-c4ccccc4)ccc23)C1c1ccc2c(c1)OCO2 (stereo not drawn) [Example 23]	690

More lines, now with the values ahead:

IC50 [nM]	SMILES
70	O=C1COC[C@@H]2Cc3c([nH]c4ccccc34)[C@H](c3ccc4c(c3)OCO4)N12 (racemic) [Example 3, (+−,cis)-10-Benzo[1,3]dioxol-5-yl-5a,6,10,11-tetrahydro-5H-7-oxa-9a,11-diazabenzo[b]-fluoren-9-one]
300	COc1ccc([C@H]2c3[nH]c4ccccc4c3C[C@H]3COCC(=O)N32)cc1 (racemic) [Example 4, (+−,cis)-10-(4-Methoxyphenyl)-5a,6,10,11-tetrahydro-5H-7-oxa-9a,11-diazabenzo[b]fluoren-9-one]
550	O=C1CCC(=O)N2[C@H](c3ccc4c(c3)OCO4)c3[nH]c4ccccc4c3C[C@@H]12 (racemic) [Example 6, (+−,trans)-6-Benzo[1,3]dioxol-5-yl-5,6,9,10,11a,12-hexahydroindolo[3,2-b]quinolizine-8,11-dione]
93	CN1CN2[C@H](c3ccc4c(c3)OCO4)c3[nH]c4ccccc4c3C[C@@H]2C(=O)N1C [Example 1, (5aR,10R)-10-Benzo[1,3]dioxol-5-yl-7,8-dimethyl-5,5a,8,9,10,11-hexahydro-7H-7,8,9a,11-tetraazabenzo[b]floren-6-one]
80	COC(=O)C1CC(=O)N2[C@H](c3ccc4c(c3)OCO4)c3[nH]c4ccccc4c3C[C@@H]2C1O (stereo partly drawn) [Example 5, (+−,cis)-6-Benzo[1,3]dioxol-5-yl-11-hydroxy-8-oxa-5,6,8,9,11a,12-hexahydroindolo[3,2-b]-guinolizine-10-carboxylic acid methyl ester]
50	O=C1OCC(=O)N2[C@H](c3ccc4c(c3)OCO4)c3[nH]c4ccccc4c3C[C@H]12 [Example 7, (6R,11aS)-10-Benzo[1,3]dioxol-5-yl-5,5a,10,11-tetrahydro-7-oxa-9a,11-diazabenzo[b]fluorene-6.9-dione]

Target: T1, PDE5 (bovine aorta) (Bos taurus, UniProt Q28156)
T1 construct: from tissue; host or cells: bovine aorta
Assay: Inhibitory effect on cGMP-PDE (one-step assay), enzyme from bovine aorta
Type: biochemical
Conditions: vs. bovine aorta (footnote 1)
Experimental: as §1, §2

IC50 [nM]	SMILES
340	COc1ccc(C2c3[nH]c4ccccc4c3CC3C(=O)N(Cc4ccccc4)C(=O)CN32)cc1 (stereo not drawn) [Example 2, 2-Benzyl-6-(4-methoxyphenyl)-6,7,12,12a-tetrahydro-pyrazino[1′,2′:1,6]pyrido[3,4-b]indole-1,3-dione]
250	O=C1CC(=O)N2CCc3c([nH]c4ccccc34)C2C1 (stereo not drawn) [Example 8, 6,7,12,12b-Tetrahydro-1H-indolo[2,3-a]-quinolizine-2,4-dione]
300	COc1cc2c(cc1O)CN1CCc3c([nH]c4ccccc34)C1C2 (stereo not drawn) [Example 15, 2-Methoxy-5,7,8,13,13b,14-hexahydroindolo-[2′,3′:3,4]pyrido[1,2-b]isoquinolin-3-ol]
900	O=C1Nc2ccccc2C2c3[nH]c4ccccc4c3CCN12 (stereo not drawn) [Example 16, 7,8,13,13b-Tetrahydro-5H-5,6a,13-triazaindeno-[1,2-c]phenanthren-6-one]
70	Cn1c2ccccc2c2c(=O)n3c(cc21)-c1[nH]c2ccccc2c1CC3 [Example 18]

— patent US6984641B2, “Carboline derivatives as PDE5 inhibitors” (Lilly Icos LLC., priority 2001, dated 2006)
